The nature of one series: in vitro. Conditions: human.
The subject of a further series is human α-coronavirus 229E. Put plainly: Viral inhibition (CPE / cell viability readout) in 16HBE cells infected by α-coronavirus 229E. The class given is cell-based. Conditions: for EC50: 120 h, read-out: EC50 (concentration which results in 50% viral inhibition). On the procedure:
The EC50 and CC50 of SR-31747 were determined in an in vitro model of infection by human α-coronavirus 229E.
Briefly, a dilution series of SR-31747 (8-point, half-log dose titration, 30 μM-10 nM) was added to 16HBE cells. Vehicle and positive control (remdesivir, 8-point, half-log dose titration, 20 μM-6.4 nM) wells were set up to control for any influence of the compounds alone on cell viability. Cells were visually inspected for the appearance of any cytopathic effects (CPE). A cell viability assay was performed once CPE was complete.
The readouts were: • EC50: The concentration which results in 50% viral inhibition, following the addition of compounds; • CC50: The concentration which results in 50% cell viability, following the addition of compounds; • Selectivity index: Calculated as CC50/EC50.
Protocol: • 1. 16HBE cells permissible to infection by α-coronavirus 229E were grown and seeded into 96-well plates to a confluency of 80-90%. • 2. The compounds SR-31747 and remdesivir (positive control) were serially diluted half-log into 8 concentrations in total and added to cells for 1 hour at 37° C. • 3. After 1 hour, α-coronavirus 229E was added at 100xTCID50. A mock infection of blank media was added to the uninfected controls. • 4. After infection, the virus/compound was removed and an overlay medium was added, with equivalent concentrations of the compounds. • 5. […] Once CPE was observed, supernatants were taken and stored at −80° C. • 7. A cell viability assay was then performed on all conditions, with cells receiving the treatment compared to the vehicle treated and uninfected controls. Calculations are as follows:
% viral inhibition=[(A-B)/(C-B)] x100, where: • A: mean optical density of test, B: mean optical density of virus controls, C: mean optical density of cell controls. • Negative values occur when A<B, due either to natural variation or compound toxicity.

The test system of series [1] is SARS-CoV-2. Put plainly: SARS-CoV-2-infected golden hamster model of COVID-19. The series is classed as in vivo. Conditions: infected hamsters. The text has this: SR-31747 was used freshly diluted in a diluent consisting of […], 5% ethanol and 5% tween-80.
24 male hamsters RjHan:AURA SPF were acclimated during 7 days and distributed in 4 groups of 6 hamsters each: • Group 1: Infected by SARS-CoV-2 and treated by SR-31747 • Group 2: Infected by SARS-CoV-2 and treated by diluent (negative control) • Group 3: Non-infected and treated by SR-31747 • Group 4: Non-infected and treated by diluent
On day 0, hamsters were infected intranasally by SARS-CoV-2 and received a first intraperitoneal injection of SR-31747 at 40 mg/kg.
On days 1, 2 and 3 the hamsters received an intraperitoneal injection of SR-31747 at 40 mg/kg. On day 4 sera and lungs from the hamsters were sampled.
From day 0 of day 4, the body temperature of the hamsters was measured at both flanks using a touchless infrared thermometer and a cumulative clinical score was determined (ruffled fur (no=0 or yes=1), slow movements (no=0, yes=1), apathy (no=0, yes=1), absence of rearing/exploration (no=0, yes=1)).
An olfactory test was conducted on day 3 preceded by a day of fasting. Briefly, cereals were buried in the litter of an individual cage and the latency to find the hidden cereals by the hamsters was measured.

The test system of series [2] is SARS-CoV-2. Put plainly: microbe, parasite or virus in culture. The class given is cell-based. Conditions: Severe acute respiratory syndrome coronavirus 2; A549-ACE2 cells, MOI 0,1, 72 hours, viral replication inhibition; read-out: RTqPCR: IC50.

Where two headings read alike, the source gives them in different places.

Turning to `CCC(CC)COC(=O)[C@H](C)N[P@](=O)(OC[C@H]1O[C@@](C#N)(c2ccc3c(N)ncnn23)[C@H](O)[C@@H]1O)Oc1ccccc1` [Remdesivir, remdesivir, reference compound], in “in vitro”, the CC50 was > 20000 nM. The EC50 in the series with human α-coronavirus 229E (16HBE) was 340 nM.

Regarding `CCN(C/C=C\c1ccc(C2CCCCC2)c(Cl)c1)C1CCCCC1` [SR-31747, N-[(Z)-3-(3-chloro-4-cyclohexylphenyl)prop-2-enyl]-N-ethylcyclohexanamine], the EC50 with human α-coronavirus 229E (16HBE cells, α-coronavirus 229E at 100xTCID50, about 5 days) was determined as 1360 nM. Besides, the “Selectivity index (CC50/EC50)” value with human α-coronavirus 229E (α-coronavirus 229E, 16HBE cells) is 5. Besides, the Cumulative clinical score entry with SARS-CoV-2 [1] (40 mg/kg intraperitoneal days 0-3, day 4, p=0,009 Mann-Whitney test) is reported as “significantly reduces”. Moreover, the “Olfactory test: latency to find hidden cereals” value in the series on SARS-CoV-2 [1] (40 mg/kg intraperitoneal, day 3) was “alleviates the olfactory dysfunction”. Besides, the Lung weight result in the series on SARS-CoV-2 [1] (40 mg/kg intraperitoneal, day 4, increase due to infection) is “significantly alleviated”. Moreover, the Body temperature entry in the series with SARS-CoV-2 [1] (40 mg/kg intraperitoneal, days 2 and 4) is “significantly increases”. In addition, the IC50 in the series on SARS-CoV-2 [2] was 2880 nM.

For the origin of these results see patent US20230364033A1, “COMPOUNDS FOR TREATING VIRUS INFECTIONS” (Meletios Therapeutics, priority 2020, published 2023).
